The values that follow come from patent US12371507B2, “CDCP1 antibodies and antibody drug conjugates” (Beth Israel Deaconess Medical Center, priority 2018, dated 2025).

By pIC50 is commonly meant −log10 of the IC50, conventionally taken in molar units. Read a high pIC50 as a low IC50.

Structures are written as SMILES. pIC50: −log10 of the molar value. Non-standard residues stand in square brackets, D forms with d. Residues, ends and D or L forms follow the SMILES beside them. *: point of attachment. Dolaproine = CO[C@@H]([C@@H]1CCCN1)[C@@H](C)C(=O)O; Dil = CC[C@H](C)[C@H](NC)[C@@H](CC(=O)O)OC; Doe = c1ccc(C[C@H](N*)c2nccs2)cc1; Aib = CC(C)(N)C(=O)O

Assay [1] has as its system head and neck cancer model PDX-HNX-24715. The assay can be described thus: PDX tumor growth versus standard of care. The format is in vivo, mouse. As to conditions: 5 mg/kg. As to the method: (§1) The effects of ADCs were evaluated on the in vivo growth of human tumor patient-derived xenografts (PDX) implanted into immunodeficient NOD/SCID mice. To establish initial PDX cell lines, primary human tumor resection samples were procured from clinical sites following Institutional Review Board for the Protection of Human Subjects approval and in accordance with HIPAA regulations. Tumor fragments were implanted subcutaneously in mice and animals were monitored for health status daily and for tumor growth by visual inspection twice per week. Once the tumors were palpable, measurements of tumor volume began in order to track tumor growth and estimate cell doubling time. Tumor volume was estimated using the equation V=(A*B^2)/2 where A is the long axis and B is the short axis. When tumors reached a volume of 500 mm^3 to 1,500 mm^3, they were harvested for study and for re-transplant in naïve mice as a PDX line. Tumors were mechanically dissociated into fragments for cryopreservation or additional passage in mice.
(§2) For efficacy studies, PDX tumors were aseptically harvested from passaging mice and minced into fragments approximately 2 mm in diameter. The PDX tumor fragments were transplanted into the right flank of naïve 7-10-week old NOD-SCID mice.
(§3) Tumor growth was initially followed by palpability with measurements beginning once tumor volumes reached about 30 mm^3. Studies were randomized based on tumor size once a cohort of tumor-bearing mice reached an average of 200 mm^3. Animals were then dosed by intravenous injection of test ADCs once every four days (day 1, 5, 9, and 13) for four total doses (q4d×4). For each tumor measurement taken at regular intervals the tumor volume was calculated and an average tumor size +/− the standard error of the mean (SEM) was derived per cohort of surviving animals to determine tumor growth rates. In some studies, a “waterfall plot” was derived by calculating the maximum observed percent difference in tumor volume from the starting volume post the final dose of ADC. […]

The test system of assay [2] is NSCLC model PDX-NSX-15137. Briefly: PDX tumor growth versus standard of care. The class given is in vivo, mouse. As to conditions: 22.5 mg/kg. As to the method:
as §1, §2, §3

Another assay concerns PE/CA-PJ-49 cells. Briefly: In vitro cytotoxicity (ATPlite viability, four days). The class given is cell-based. Particulars: Homo sapiens; PE/CA-PJ-49, oral squamous cell carcinoma. As to the method:
(§4) Cells were incubated in a 6-fold 9-point dilution series of respective ADCs ranging in concentration from 600 nM to 0.357225 pM. […] The mean of luminescence counts of triplicate samples were normalized to a medium only control (growth medium no ADC) to calculate percent viability.

For the next assay, the system named is H1299 cells. The assay is described as above. As to conditions: Homo sapiens, NCI-H1299; H1299, NSCLC. The format is cell-based. As to the method: as §4
Assay [3] deals with primary human aortic smooth muscle cells (HuAoSMC). Described as above. The class given is cell-based. As to the method: as §4
In the next assay the test system is H2009 cells. The description is as above. The class given is cell-based. As to conditions: Homo sapiens, NCI-H2009; H2009, lung adenocarcinoma. On the procedure: as §4
Another assay concerns PC3 cells. The assay is described as above. The class given is cell-based. As to conditions: Homo sapiens, PC-3; PC3, prostate cancer. As to the method: as §4
In the next assay the test system is SCC-25 cells. Described as above. Particulars: Homo sapiens; SCC-25, head and neck cancer. The class given is cell-based. On the procedure:
as §4

`N.N.[Cl][Pt][Cl]` [cisplatin, reference compound]: the “tumor size at day 25” value in assay [1] is reported as “more than doubled in size”.

Consider `CC(=O)O[C@H]1C(=O)[C@@]2(C)[C@H]([C@H](OC(=O)c3ccccc3)[C@]3(O)C[C@H](OC(=O)[C@H](O)[C@@H](NC(=O)c4ccccc4)c4ccccc4)C(C)=C1C3(C)C)[C@]1(OC(C)=O)CO[C@@H]1C[C@@H]2O` [Paclitaxel, reference compound], for which, in assay [2], the “average tumor size at day 35” value is reported as “doubled” and the “day by which all mice had been sacrificed due to excessive tumor growth” value was no more than 42 days.

As for `CC[C@H](C)[C@@H]([C@@H](CC(=O)N1CCC[C@H]1[C@H](OC)[C@@H](C)C(=O)N[C@@H](Cc1ccccc1)c1nccs1)OC)N(C)C(=O)[C@@H](NC(=O)C(C)(C)N)C(C)C` [Aur0101, 2-methylalanyl-N-[(3R,4S,5S)-3-methoxy-1-{(2S)-2-[(1R,2R)-1-methoxy-2-methyl-3-oxo-3-{[(1S)-2-phenyl-1-(1,3-thiazol-2-yl)ethyl]amino}propyl]pyrrolidin-1-yl}-5-methyl-1-oxoheptan-4-yl]-N-methyl-L-valinamide] (H-[Aib]V[Dil][Dolaproine]-Doe), the pIC50 is 10.43 in the assay with PE/CA-PJ-49 cells; 9.69 in the assay on H1299 cells; 9.75 in assay [3]; 9.94 in the assay on H2009 cells; 10.20 with PC3 cells; 10.33 in the assay on SCC-25 cells.
